The values below are quoted from earlier work in article PMC6958329, “New ^55Co-labeled Albumin-Binding Folate Derivatives as Potential PET Agents for Folate Receptor Imaging” (Pharmaceuticals, 2019).

Read-outs that look alike come from different tables or passages of the source.

The subject of the data set is tumor. On the set-up: method as in PMID 27145400. The settings on record: previously reported, cited from earlier work.

For the compound `Nc1nc2ncc(CNc3ccc(C(=O)N[C@@H](CCC(=O)NC(CCCCNC(=O)CCC(C(=O)O)N4CCN(CC(=O)O)CCN(CC(=O)O)CC4)C(=O)NC(CCCCNC(=O)CCCc4ccc(I)cc4)C(=O)O)C(=O)O)cc3)nc2c(=O)[nH]1.[68Ga]` (stereo partly drawn) [[^68Ga]Ga-rf42], the tumor uptake (4 h post-injection) was 12% ± 2%.
Turning to `Nc1nc2ncc(CNc3ccc(C(=O)N[C@@H](CCC(=O)NC(CCCCNC(=O)CCC(C(=O)O)N4CCN(CC(=O)O)CCN(CC(=O)O)CC4)C(=O)NC(CCCCNC(=O)CCCc4ccc(I)cc4)C(=O)O)C(=O)O)cc3)nc2c(=O)[nH]1.[64Cu]` (stereo partly drawn) [[^64Cu]Cu-rf42], the tumor uptake is 14.5% ± 1.0% (4 h post-injection) and 16% ± 4% (24 h post-injection).
